Patent US8394801B2, “Quinoxaline derivatives and their use for treating benign and malignant tumour disorders” (Aeterna Zentaris GmbH, priority 2009, dated 2013)

Experiments:
[1] = system: MDA MB468; assay: Proliferation assay (Alamar Blue / XTT), MDA MB468; assay type: cell-based; details: Homo sapiens, MDA-MB-468; cell line MDA-MB468 (breast)
[2] = system: PC-3; assay: Proliferation assay (Alamar Blue / XTT), PC-3; assay type: cell-based; details: Homo sapiens, cell line PC3 (prostate)
[3] = system: HCT116; assay: Proliferation assay (Alamar Blue / XTT), HCT116; assay type: cell-based; details: Homo sapiens; cell line HCT-116 (colon)
[4] = system: A549; assay: Proliferation assay (Alamar Blue / XTT), A549; assay type: cell-based; details: Homo sapiens; cell line A549 (lung)
[5] = system: U87MG; assay: Proliferation assay (Alamar Blue / XTT), U87MG; assay type: cell-based; details: Homo sapiens, U-87 MG; cell line U87MG (glioma)
[6] = system: NCI-H460; assay: Proliferation assay (Alamar Blue / XTT), NCI-H460; assay type: cell-based; details: Homo sapiens; cell line NCI-H460 (lung)
[7] = system: SKOV-3; assay: Proliferation assay (Alamar Blue / XTT), SKOV-3; assay type: cell-based; details: Homo sapiens, SK-OV-3; cell line SKOV-3 (ovaries)
[8] = system: MESSA DX5; assay: XTT proliferation test, doxorubicin-resistant MESSA Dx5; assay type: cell-based; details: Homo sapiens, MES-SA/Dx5, doxorubicin-resistant cell line MESSA Dx5 (uterus)
From the text: (§1) For further characterization, the substances according to the invention were examined in resistant tumour cell lines compared to non-resistant wild-type tumour cell lines.
(§2) The cell lines examined are the cell line A2780 (ovary), the cis-platin-resistant cell line A2780 (ovary), the cell line L1210 (leukaemia), the vincristine-resistant cell line L1210 (leukaemia), the cell line MESSA (uterus), the doxorubicin-resistant cell line MESSA Dx5 (uterus), the cell line NCIH69 (lung) and the multi-drug-resistant cell line NCIH69 AR (lung).

[9] = system: L1210 VCR; assay: XTT proliferation test, vincristine-resistant L1210; assay type: cell-based; details: Mus musculus, vincristine-resistant cell line L1210 (leukaemia)
From the text: as §1, §2

[10] = system: A2780 cis-Pt; assay: XTT proliferation test, cis-platin-resistant A2780; assay type: cell-based; details: Homo sapiens, cis-platin-resistant cell line A2780 (ovary)
From the text: as §1, §2

[11] = system: L1210; assay: XTT proliferation test, L1210; assay type: cell-based; details: Mus musculus, cell line L1210 (leukaemia), non-resistant
From the text: as §1, §2

[12] = system: NCI H69 AR; assay: XTT proliferation test, multi-drug-resistant NCI H69 AR; assay type: cell-based; details: Homo sapiens, NCI-H69AR, multi-drug-resistant cell line NCIH69 AR (lung)
From the text: as §1, §2

[13] = system: NCI H69; assay: XTT proliferation test, NCI H69; assay type: cell-based; details: Homo sapiens, cell line NCIH69 (lung), non-resistant
From the text: as §1, §2

[14] = system: MESSA; assay: XTT proliferation test, MESSA; assay type: cell-based; details: Homo sapiens, MES-SA, cell line MESSA (uterus), non-resistant
From the text: as §1, §2

[15] = system: A2780; assay: XTT proliferation test, A2780; assay type: cell-based; details: Homo sapiens, cell line A2780 (ovary), non-resistant
From the text: as §1, §2

[16] = system: RKOP27; assay: Proliferation assay (Alamar Blue / XTT), RKOP27; assay type: cell-based; details: Homo sapiens; cell line RKOp27 (colon)

SMILES | EC50 [1] | EC50 [2] | melting point | EC50 [3] | EC50 [4] | EC50 [5] | EC50 [6] | EC50 [7] | EC50 [8] | EC50 [9] | EC50 [10] | EC50 [11] | EC50 [12] | EC50 [13] | EC50 [14] | EC50 [15] | EC50 [16]
CCNC(=O)Nc1cnc2ccc(-c3cc(Cl)c(O)c(Cl)c3)cc2n1 [Compound 74, 1-[7-(3,5-Dichloro-4-hydroxy-phenyl)-quinoxalin-2-yl]-3-ethyl-urea] | 2100 nM | 2200 nM | 295 to 296 °C | 3090 nM | 3910 nM | 10000 nM | – | – | – | – | – | – | – | – | – | – | –
CCCNC(=O)Nc1cnc2ccc(-c3cc(C)c(O)c(C)c3)cc2n1 [Compound 36, 1-[7-(4-Hydroxy-3,5-dimethylphenyl)quinoxalin-2-yl]-3-propylurea] | 43 nM | 9 nM | 276 to 277 °C | 43 nM | 34 nM | 111 nM | 64 nM | 42 nM | – | – | – | – | – | – | – | – | –
O=C(Nc1cnc2ccc(-c3cc(Cl)c(O)c(Cl)c3)cc2n1)NC1CCCCCC1 [Compound 78, 1-Cycloheptyl-3-[7-(3,5-dichloro-4-hydroxy-phenyl)-quinoxalin-2-yl]-urea] | 436 nM | 306 nM | 283 to 286 °C | 809 nM | 1180 nM | 3110 nM | – | – | – | – | – | – | – | – | – | – | –
CC(C)NC(=O)Nc1cnc2ccc(-c3cnn(C)c3)cc2n1 [Compound 70, 1-Isopropyl-3-[7-(1-methyl-1H-pyrazol-4-yl)-quinoxalin-2-yl]-urea] | 991 nM | 601 nM | 260 to 263 °C | 564 nM | 1320 nM | 801 nM | – | – | – | – | – | – | – | – | – | – | –
Cc1cc(-c2ccc3ncc(NC(=S)NC4CC4)nc3c2)cc(C)c1O [Compound 23, 1-Cyclopropyl-3-[7-(4-hydroxy-3,5-dimethylphenyl)quinoxalin-2-yl]-thiourea] | 148 nM | 3 nM | 274 to 276 °C | 3 nM | 9 nM | 2 nM | 21 nM | 16 nM | 16 nM | 4 nM | 19 nM | 5 nM | 0.8 nM | 4 nM | 48 nM | 22 nM | 20 nM
Cc1cc(-c2ccc3ncc(NC(=S)NC4CCC4)nc3c2)cc(C)c1O [Compound 34, 1-Cyclobutyl-3-[7-(4-hydroxy-3,5-dimethylphenyl)quinoxalin-2-yl]-thiourea] | 30 nM | 12 nM | 285 to 286 °C | 36 nM | 16 nM | 224 nM | 52 nM | 50 nM | – | – | – | – | – | – | – | – | 58 nM
Cc1cc(-c2ccc3ncc(NC(=O)NC(C)(C)C)nc3c2)cc(C)c1O [Compound 9, 1-tert-Butyl-3-[7-(4-hydroxy-3,5-dimethylphenyl)quinoxalin-2-yl]urea] | 263 nM | 112 nM | – | 229 nM | 289 nM | 181 nM | 238 nM | 248 nM | – | – | – | – | – | – | – | – | 176 nM
CCCCCNC(=S)Nc1cnc2ccc(-c3cc(Cl)c(O)c(Cl)c3)cc2n1 [Compound 90, 1-[7-(3,5-Dichloro-4-hydroxy-phenyl)-quinoxalin-2-yl]-3-pentyl-thiourea] | 318 nM | 556 nM | 237 to 238 °C | 1010 nM | 1090 nM | 1230 nM | – | – | – | – | – | – | – | – | – | – | –
